According to patent publication US12331121B2, “Efflux pump-cancer antigen multi-specific antibodies and compositions, reagents, kits and methods related thereto” (William Robert Arathoon Living Trust Dated August 29, 2016, priority 2019, dated 2025):

Experiments:
Assay type in all cases: in vivo
A2780ADR cells = assay: A2780ADR subcutaneous tumors in mice
Method: A2780ADR MDR cancer cell line and HeyT30 MDR cancer cell line were injected into mice according to protocols described in Example 3. Mice were treated with BisP1.1 bispecific antibody with or without paclitaxel.
Cells: A2780ADR cell line (Sigma, catalogue no 93112520) is an epithelial ovarian carcinoma, derived from parent A2780 cell line (Sigma, catalogue no 93112519), was used in this study.
Mice: 5-6-weeks-old female nude mice (Charles River) were used in this study.
(§1) All animal maintenance, handling, surveillance, and animal procedures were performed in accordance with and approval from the APLAC protocol.
(§2) A2780ADR subcutaneous tumors: Mice were randomized into six groups of five mice each—(i) Control isotype IgG1 3 mg/kg, (ii) Control isotype IgG1 3 mg/kg and 20 mg/kg of paclitaxel, (iii) KNJYBisP1.1 3 mg/kg, (iv) KNJYBisP1.1 3 mg/kg and 20 mg/kg of paclitaxel, (v) KNJYBisP1.1 N297A 3 mg/kg and (vi) KNJYBisP1.1 N297A 3 mg/kg and 20 mg/kg of paclitaxel. Antibody and paclitaxel were dosed intraperitoneally twice a week for two consecutive weeks.
A2780ADR subcutaneous tumors: Once tumors reached 100-150 mm^3, mice were randomized into ten groups of five mice each—(i) Control isotype IgG1 3 mg/kg, (ii) Control isotype IgG1 3 mg/kg and 20 mg/kg of paclitaxel, (iii) KNJYBisP1.1 3 mg/kg, (iv) KNJYBisP1.1 3 mg/kg and 20 mg/kg of paclitaxel, (v) 15D3 hybridoma monoclonal Ab 3 mg/kg, (vi) 15D3 hybridoma 3 mg/kg and 20 mg/kg of paclitaxel, (vii) KT14/KT14 monoclonal Ab 3 mg/kg, (viii) KT14/KT14 monoclonal Ab 3 mg/kg and 20 mg/kg of paclitaxel, (ix) 15D3 hybridoma+KT14/KT14, 1.5 mg each and (x) 15D3 hybridoma+KT14/KT14, 1.5 mg each and 20 mg/kg of paclitaxel. Antibodies and paclitaxel were dosed intraperitoneally twice a week for two consecutive weeks.

[1] = system: multidrug resistant N6ADR cells; assay: N6ADR tumor volume in mice (Example 2, FIG. 9); conditions: antibody on day 0, 4, 7, 11; no chemotherapeutic agent
Method: N6ADR cells were injected into a cohort of 6 mice per test group prior to administration of the indicated antibodies. The antibodies were administered once palpable tumors reached a size of about 100-150 mm^3 (about 7 days after injection of tumor cells). Antibodies were administered on day 0, day 4, day 7, and day 11. Tumor volumes were measured and are plotted. Panel A: 15D3/MRK16 monoclonal anti-MDR1 antibody. Panel B: KT14/MRK16 monoclonal anti-CD47 antibody. Panel C: Co-administration of 15D3/MRK16 monoclonal anti-MDR1 antibody and KT14/MRK16 monoclonal anti-CD47 antibody. Panel D: KbisP1.1 antibody.
The indicated antibodies were administered with or without the chemotherapeutic agent paclitaxel. Antibody was dosed about 1-4 hrs prior to Paclitaxel.

MES-SA/Dx5 cells = assay: MES-SA/Dx5 subcutaneous tumors in nude mice
Method: Cells: MES-SA/Dx5 cell line (Sigma, catalogue no 95051031) is a uterine sarcoma, derived from parent MES-SA cell line (Sigma, catalogue no 95051030), was used in this study.
Mice: 5-6-week-old female nude mice (Charles River) were used in this study.
as §1
as §2, with “MES-SA/Dx5” for “A2780ADR”, “Once tumors reached 100-150 mm^3, mice” for “Mice”, “LALAPG” for “N297A”, “weeks. […]” for “weeks.”

[2] = antibody 3 mg/kg, paclitaxel 20 mg/kg

KBisP1.1: bispecific anti-MDR1/anti-CD47 antibody: 15D3 heavy chain, 5F9 (KT14) heavy chain, common MRK16 light chain, human IgG1
chemosensitizing effect compared with monospecific antibodies (A2780ADR cells; 3 mg/kg with paclitaxel 20 mg/kg, FIG. 28): stronger compared to either the anti-MDR1 15D3 hybridoma antibody or anti-CD47 KT14 monoclonal antibody | tumor volume (A2780ADR cells; Example 4, with or without paclitaxel, FIG. 18): efficacious in reducing A2780ADR MDR cancer cell tumor volume with or without paclitaxel | chemosensitization of A2780ADR tumors to paclitaxel (A2780ADR cells; [2]): chemosensitizes | effect on tumor volume without paclitaxel [1]: more efficacious than the co-administration | chemosensitizing effect compared with monospecific antibodies (MES-SA/Dx5 cells; 3 mg/kg with paclitaxel 20 mg/kg, FIG. 29): stronger than either the 15D3 hybridoma or KT14 monoclonal antibodies | chemosensitization of MES-SA/Dx5 tumors to paclitaxel (MES-SA/Dx5 cells; [2]): chemosensitizes
